IC50 data for 17 compounds are collected here from patent publication EP4692090A1 (Shanghai Fosun Pharmaceutical (Group) Co., Ltd., priority 2023, dated 2024).

For one experiment, the system named is LoVo cells. Briefly: LoVo cell proliferation assay (CellTiter-Glo). The experiment is classed as cell-based. To be noted: maximum concentration 10 µM, 9 concentrations. The procedure:
Test Example 2: LoVo cell proliferation assay
LoVo (ATCC, #CRL-229) cells in logarithmic growth phase were digested, counted, and plated into 96-well cell culture plates at 2,000 cells per well. The plates containing cells were incubated overnight at 37°C in a 5% CO2 incubator, and then test compounds with 3-fold gradient dilutions (maximum concentration: 10 µM, 9 concentrations) were added. DMSO was used as a blank control. After the LoVo cells containing the compounds or DMSO were incubated for an additional 5 days, an equal volume of CellTiter-Glo reagent (Promega, #7573) was added. After incubation at room temperature for 30 minutes, chemiluminescence was read using an Envision 2105 (PerkinElmer). The cell proliferation inhibition rate (%) for wells treated with each concentration of the compounds was calculated using the following formula. Then, with compound concentration as the horizontal axis and cell proliferation inhibition rate (%) as the vertical axis, GraphPad software was used to plot the data and determine the IC50 values of the test compounds. The results are shown in Table 2, wherein the IC50 ranges are defined as follows: A: ≤ 100 nM; 1000 nM ≥ B > 100 nM; C > 1000 nM.
Cell proliferation inhibition (%) = (1 - luminescence value of compound-treated group / average luminescence value of DMSO blank control group) × 100. Table 2. Inhibitory effect of compounds on LoVo growth

In another experiment the target is T1, ATR kinase (Homo sapiens, UniProt Q13535).
T1 construct: purchased Eurofins 14-953
T1 sequence (Q13535 whole entry): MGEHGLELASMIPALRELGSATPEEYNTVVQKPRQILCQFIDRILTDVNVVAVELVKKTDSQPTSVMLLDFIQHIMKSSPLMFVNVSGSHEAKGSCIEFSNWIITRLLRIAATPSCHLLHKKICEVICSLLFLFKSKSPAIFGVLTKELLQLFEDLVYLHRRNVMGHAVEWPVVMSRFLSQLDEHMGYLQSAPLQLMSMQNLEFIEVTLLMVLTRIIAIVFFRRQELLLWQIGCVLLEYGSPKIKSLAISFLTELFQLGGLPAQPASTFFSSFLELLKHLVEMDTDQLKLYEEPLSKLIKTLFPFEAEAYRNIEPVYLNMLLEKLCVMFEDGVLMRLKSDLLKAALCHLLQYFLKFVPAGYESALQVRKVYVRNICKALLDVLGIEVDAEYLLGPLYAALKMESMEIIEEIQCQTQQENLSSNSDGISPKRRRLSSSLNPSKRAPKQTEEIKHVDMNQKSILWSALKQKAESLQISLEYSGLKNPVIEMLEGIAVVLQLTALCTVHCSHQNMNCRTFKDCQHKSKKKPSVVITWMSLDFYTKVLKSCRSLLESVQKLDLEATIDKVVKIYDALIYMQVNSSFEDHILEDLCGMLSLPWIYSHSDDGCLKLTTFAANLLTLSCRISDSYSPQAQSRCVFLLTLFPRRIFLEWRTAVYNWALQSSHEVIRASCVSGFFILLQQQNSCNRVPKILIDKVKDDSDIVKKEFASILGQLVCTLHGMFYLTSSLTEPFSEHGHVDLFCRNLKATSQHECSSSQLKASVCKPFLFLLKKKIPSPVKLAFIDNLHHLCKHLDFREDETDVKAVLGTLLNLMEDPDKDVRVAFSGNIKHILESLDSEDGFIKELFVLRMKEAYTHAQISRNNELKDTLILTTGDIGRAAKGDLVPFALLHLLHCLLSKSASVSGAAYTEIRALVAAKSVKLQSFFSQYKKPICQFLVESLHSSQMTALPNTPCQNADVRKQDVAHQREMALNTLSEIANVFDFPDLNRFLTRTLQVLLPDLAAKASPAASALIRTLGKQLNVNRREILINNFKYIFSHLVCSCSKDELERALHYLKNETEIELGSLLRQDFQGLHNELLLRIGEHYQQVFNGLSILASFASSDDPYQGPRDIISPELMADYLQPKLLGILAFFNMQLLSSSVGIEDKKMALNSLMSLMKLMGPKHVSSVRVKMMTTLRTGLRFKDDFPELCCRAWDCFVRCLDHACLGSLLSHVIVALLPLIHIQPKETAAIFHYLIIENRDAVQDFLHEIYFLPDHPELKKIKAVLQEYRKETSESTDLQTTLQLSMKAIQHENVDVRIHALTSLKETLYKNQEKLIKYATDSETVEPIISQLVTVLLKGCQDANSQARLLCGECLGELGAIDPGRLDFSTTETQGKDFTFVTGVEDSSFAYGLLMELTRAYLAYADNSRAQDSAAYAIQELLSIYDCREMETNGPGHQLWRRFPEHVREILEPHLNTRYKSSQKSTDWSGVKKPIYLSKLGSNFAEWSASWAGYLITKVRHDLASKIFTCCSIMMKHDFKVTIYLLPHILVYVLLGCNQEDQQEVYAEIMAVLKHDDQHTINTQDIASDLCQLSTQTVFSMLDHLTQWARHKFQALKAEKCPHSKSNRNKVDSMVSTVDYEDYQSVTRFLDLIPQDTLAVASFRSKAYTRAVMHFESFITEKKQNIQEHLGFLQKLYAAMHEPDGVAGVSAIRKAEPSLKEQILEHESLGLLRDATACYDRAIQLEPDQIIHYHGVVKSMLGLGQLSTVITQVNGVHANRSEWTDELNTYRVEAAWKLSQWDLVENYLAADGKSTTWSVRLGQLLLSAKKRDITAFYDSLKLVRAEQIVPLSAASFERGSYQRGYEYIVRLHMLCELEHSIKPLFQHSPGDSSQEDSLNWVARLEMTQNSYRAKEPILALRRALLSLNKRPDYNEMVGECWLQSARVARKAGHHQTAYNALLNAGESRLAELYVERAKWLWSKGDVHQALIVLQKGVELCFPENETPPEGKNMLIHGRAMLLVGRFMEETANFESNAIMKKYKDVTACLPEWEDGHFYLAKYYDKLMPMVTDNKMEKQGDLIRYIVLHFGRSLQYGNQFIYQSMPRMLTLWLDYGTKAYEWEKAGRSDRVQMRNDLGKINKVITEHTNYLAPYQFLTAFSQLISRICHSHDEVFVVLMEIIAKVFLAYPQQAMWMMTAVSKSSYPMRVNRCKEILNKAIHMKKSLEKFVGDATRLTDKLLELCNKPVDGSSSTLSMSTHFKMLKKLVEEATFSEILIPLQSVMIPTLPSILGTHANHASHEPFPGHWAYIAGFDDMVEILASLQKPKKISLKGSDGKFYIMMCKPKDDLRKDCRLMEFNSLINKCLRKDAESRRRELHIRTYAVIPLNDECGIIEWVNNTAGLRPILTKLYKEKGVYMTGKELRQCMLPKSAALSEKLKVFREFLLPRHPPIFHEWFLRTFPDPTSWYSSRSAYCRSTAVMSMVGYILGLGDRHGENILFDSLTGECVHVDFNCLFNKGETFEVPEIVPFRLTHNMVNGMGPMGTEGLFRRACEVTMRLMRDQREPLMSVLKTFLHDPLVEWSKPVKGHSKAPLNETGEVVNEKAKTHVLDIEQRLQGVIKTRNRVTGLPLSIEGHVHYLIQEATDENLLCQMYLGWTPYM
T1 sequence (Q8WXE1 whole entry partner): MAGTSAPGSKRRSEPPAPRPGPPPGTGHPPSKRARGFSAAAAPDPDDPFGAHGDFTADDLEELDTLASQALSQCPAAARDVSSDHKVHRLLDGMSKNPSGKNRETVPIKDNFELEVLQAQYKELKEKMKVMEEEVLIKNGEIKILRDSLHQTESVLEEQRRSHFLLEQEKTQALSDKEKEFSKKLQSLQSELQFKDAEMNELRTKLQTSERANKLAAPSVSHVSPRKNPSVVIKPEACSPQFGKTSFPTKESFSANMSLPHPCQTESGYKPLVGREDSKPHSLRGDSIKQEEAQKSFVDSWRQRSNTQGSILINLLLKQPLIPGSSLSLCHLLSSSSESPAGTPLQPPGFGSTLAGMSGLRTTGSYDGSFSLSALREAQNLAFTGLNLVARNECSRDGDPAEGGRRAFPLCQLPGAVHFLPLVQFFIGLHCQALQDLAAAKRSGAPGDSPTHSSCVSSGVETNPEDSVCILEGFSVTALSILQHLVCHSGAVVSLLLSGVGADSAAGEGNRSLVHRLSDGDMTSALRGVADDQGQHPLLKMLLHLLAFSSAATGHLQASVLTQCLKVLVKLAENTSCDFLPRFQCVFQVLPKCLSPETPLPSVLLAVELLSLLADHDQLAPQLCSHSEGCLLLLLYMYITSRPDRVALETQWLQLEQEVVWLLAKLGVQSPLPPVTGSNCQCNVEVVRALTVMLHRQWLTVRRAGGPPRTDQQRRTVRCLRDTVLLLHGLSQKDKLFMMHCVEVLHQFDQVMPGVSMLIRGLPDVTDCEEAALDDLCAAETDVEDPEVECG
Briefly: Inhibitory effect on ATR kinase activity (Caliper mobility shift, FAM-labeled RAD17 peptide substrate). It is filed as biochemical. The procedure: Test Example 1: Inhibitory effect of the compounds of the present disclosure on ATR kinase activity
Test compounds to be tested were serially diluted with DMSO (maximum concentration 1 µM, 10 concentrations with 3-fold serial dilution) and added to the wells of a 384-well reaction plate (Corning, #4512). 1 nM ATR kinase (Eurofins, #14-953), 5 mM substrate (FAM-labeled RAD17 peptide, FAM-ASELPASQPQPFSAKKK), 5 mM ATP and the compounds with corresponding concentrations reacted in a kinase reaction solution (50 mM HEPES, pH 7.5; 0.0015% Brij-35; 10 mM MnCl2, total volume of 20 µL) at 28°C for 3 hours. The reaction was terminated by adding 30 µL of stop solution (100 mM HEPES, pH 7.5; 0.015% Brij-35; 0.2% Coating Reagent #3, PerkinElmer; 50 mM EDTA). The reaction plate was placed on a Caliper instrument (PerkinElmer) for testing. The relative inhibitory activity of each compound concentration group was calculated using the following formula: % Inhibition = (Conversion rate of the blank control group without compound added - Conversion rate of the test compound group) / (Conversion rate of the blank control group - […]). The IC50 values were calculated using GraphPad analysis and fitted. […] Table 1. Inhibitory effect (IC50) of compounds on ATR kinase activity.

The mark [1] stands for this setting: LoVo cells, 2,000 cells per well, 5 days incubation, CellTiter-Glo, read-out: LoVo IC50.
Where [2] appears, read: 1 nM ATR kinase (Eurofins), 28°C for 3 hours, maximum concentration 1 µM, 10 concentrations, read-out: ATR kinase IC50.
Setting [3] is: Homo sapiens, LoVo, 120 h, LoVo cells, 2,000 cells per well, 5 days incubation, CellTiter-Glo, read-out: LoVo IC50.
Setting [4] is: read-out: ATR kinase IC50, 1 nM ATR kinase (Eurofins), 28°C for 3 hours, maximum concentration 1 µM, 10 concentrations.

Structures are written as SMILES. Read-outs that look alike come from different tables or passages of the source.

`CC(C)N1CCc2nn(-c3cc[nH]n3)c3nc(N4CCOC[C@H]4C)cc(c23)C1C` (single isomer, unassigned) [Compound 36B]: the IC50 was less than 100 nM with LoVo cells (setting [1]) and less than 10 nM at ATR kinase (setting [2]).

On to `CC1c2cc(N3CCOC[C@H]3C)nc3c2c(nn3-c2cc[nH]n2)CCN1S(=O)(=O)C1CC1` (single isomer, unassigned) [Compound 37A], for which the IC50 was less than 100 nM in the experiment on LoVo cells (setting [3]) and 10 to 100 nM on ATR kinase (setting [2]).

In the case of `CC1c2cc(N3CCOC[C@H]3C)nc3c2c(nn3-c2cc[nH]n2)CCN1S(=O)(=O)C1CC1` (single isomer, unassigned) [Compound 37B], the IC50 is less than 100 nM in the experiment with LoVo cells (setting [1]) and less than 10 nM on ATR kinase (setting [2]).

Take `CC1c2cc(N3CCOC[C@H]3C)nc3c2c(nn3-c2cc[nH]n2)CCN1S(C)(=O)=O` (single isomer, unassigned) [Compound 39A]: the IC50 in the experiment on LoVo cells (setting [1]) is less than 100 nM; on ATR kinase (setting [2]), less than 10 nM.

Consider `CC1c2cc(N3CCOC[C@H]3C)nc3c2c(nn3-c2cc[nH]n2)CCN1S(C)(=O)=O` (single isomer, unassigned) [Compound 39B], for which the IC50 in the experiment on LoVo cells (setting [1]) was more than 1000 nM; at ATR kinase (setting [2]) it was less than 10 nM.

For `CC1c2cc(N3CCOC[C@H]3C)nc3c2c(nn3-c2cc[nH]n2)CCN1C(=O)C1(C#N)CC1` (single isomer, unassigned) [Compound 40A], the IC50 with LoVo cells (Homo sapiens, LoVo, 120 h, read-out: LoVo IC50 (nM), LoVo cells, 2,000 cells per well, 5 days incubation, CellTiter-Glo) was 100 to 1000 nM; on ATR kinase (setting [4]), less than 10 nM.

Consider `CC1c2cc(N3CCOC[C@H]3C)nc3c2c(nn3-c2cc[nH]n2)CCN1C(=O)C1(C#N)CC1` (single isomer, unassigned) [Compound 40B], for which the IC50 with LoVo cells (read-out: LoVo IC50, LoVo cells, 2,000 cells per well, 5 days incubation, CellTiter-Glo) lay within 100 to 1000 nM; on ATR kinase (setting [4]), 10 to 100 nM.

On to `CCN1CCc2nn(-c3cc[nH]n3)c3nc(N4CCOC[C@H]4C)cc(c23)C1C` (single isomer, unassigned) [Compound 41A], for which the IC50 with LoVo cells (setting [3]) was less than 100 nM; on ATR kinase (setting [2]), less than 10 nM.

Turning to `CCN1CCc2nn(-c3cc[nH]n3)c3nc(N4CCOC[C@H]4C)cc(c23)C1C` (single isomer, unassigned) [Compound 41B], the values for the IC50 with LoVo cells (setting [1]) and at ATR kinase (setting [2]) were less than 100 nM and less than 10 nM, respectively.

Take `CC1c2cc(N3CCOC[C@H]3C)nc3c2c(nn3-c2cc[nH]n2)CCN1C1(C#N)CC1` (single isomer, unassigned) [Compound 42A]: the figures for the IC50 with LoVo cells (setting [3]) and at ATR kinase (setting [2]) were less than 100 nM and less than 10 nM, respectively.

Turning to `CC1c2cc(N3CCOC[C@H]3C)nc3c2c(nn3-c2cc[nH]n2)CCN1C1(C#N)CC1` (single isomer, unassigned) [Compound 42B], the IC50 with LoVo cells (setting [1]) is less than 100 nM; at ATR kinase (setting [2]) it was 10 to 100 nM.

As for `CC1c2cc(N3CCOC[C@H]3C)nc3c2c(nn3-c2cc[nH]n2)CCN1CC1COC1` (single isomer, unassigned) [Compound 44A], the IC50 in the experiment on LoVo cells (setting [3]) is 100 to 1000 nM; at ATR kinase (setting [2]), 10 to 100 nM.

Regarding `CC1c2cc(N3CCOC[C@H]3C)nc3c2c(nn3-c2cc[nH]n2)CCN1S(C)(=N)=O` (single isomer, unassigned) [Compound 46C], the IC50 is less than 100 nM with LoVo cells (setting [1]) and less than 10 nM on ATR kinase (setting [2]).

Consider `[2H]C([2H])([2H])N1CCc2nn(-c3cc[nH]n3)c3nc(N4CCOC[C@H]4C)cc(c23)C1C` (single isomer, unassigned) [Compound 47A], for which the IC50 in the experiment on LoVo cells (setting [3]) was less than 100 nM; at ATR kinase (setting [2]), less than 10 nM.

For the compound `[2H]C([2H])([2H])N1CCc2nn(-c3cc[nH]n3)c3nc(N4CCOC[C@H]4C)cc(c23)C1C` (single isomer, unassigned) [Compound 47B], the IC50 is less than 100 nM in the experiment with LoVo cells (setting [1]) and less than 10 nM on ATR kinase (setting [2]).

As to `CCS(=O)(=O)N1CCc2nn(-c3cc[nH]n3)c3nc(N4CCOC[C@H]4C)cc(c23)C1C` (single isomer, unassigned) [Compound 48A], the values for the IC50 in the experiment on LoVo cells (setting [3]) and at ATR kinase (setting [2]) were 100 to 1000 nM and 10 to 100 nM, respectively.

Turning to `CCS(=O)(=O)N1CCc2nn(-c3cc[nH]n3)c3nc(N4CCOC[C@H]4C)cc(c23)C1C` (single isomer, unassigned) [Compound 48B], the IC50 in the experiment with LoVo cells (setting [1]) is less than 100 nM; at ATR kinase (setting [2]) it was less than 10 nM.
